Measured values published in patent publication US9394311B2, “Triazolo compounds as PDE10 inhibitors” (Hoffmann-La Roche Inc., priority 2012, dated 2016).

What follows are compounds tested against human PDE10A (Homo sapiens (Human), UniProt Q9Y233) (assay: human PDE10A full length Scintillation Proximity Assay (SPA)). Details: PDE10A full length enzyme, 50 nM cGMP / [3H]-cGMP substrate, 20 minutes at room temperature.
Format: biochemical
Outline: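 Full-length human PDE10A with 50 nM cGMP plus 50 nM [3H]-cGMP in 20 mM HEPES pH 7.5, 10 mM MgCl2, 0.05 mg/ml BSA; 20 min at room temperature. Stopped with yttrium silicate SPA beads in zinc sulphate, scintillation counted; IC50 from concentration range.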

Sequence of human PDE10A (Q9Y233 other isoform, or with tags, fused parts or gaps): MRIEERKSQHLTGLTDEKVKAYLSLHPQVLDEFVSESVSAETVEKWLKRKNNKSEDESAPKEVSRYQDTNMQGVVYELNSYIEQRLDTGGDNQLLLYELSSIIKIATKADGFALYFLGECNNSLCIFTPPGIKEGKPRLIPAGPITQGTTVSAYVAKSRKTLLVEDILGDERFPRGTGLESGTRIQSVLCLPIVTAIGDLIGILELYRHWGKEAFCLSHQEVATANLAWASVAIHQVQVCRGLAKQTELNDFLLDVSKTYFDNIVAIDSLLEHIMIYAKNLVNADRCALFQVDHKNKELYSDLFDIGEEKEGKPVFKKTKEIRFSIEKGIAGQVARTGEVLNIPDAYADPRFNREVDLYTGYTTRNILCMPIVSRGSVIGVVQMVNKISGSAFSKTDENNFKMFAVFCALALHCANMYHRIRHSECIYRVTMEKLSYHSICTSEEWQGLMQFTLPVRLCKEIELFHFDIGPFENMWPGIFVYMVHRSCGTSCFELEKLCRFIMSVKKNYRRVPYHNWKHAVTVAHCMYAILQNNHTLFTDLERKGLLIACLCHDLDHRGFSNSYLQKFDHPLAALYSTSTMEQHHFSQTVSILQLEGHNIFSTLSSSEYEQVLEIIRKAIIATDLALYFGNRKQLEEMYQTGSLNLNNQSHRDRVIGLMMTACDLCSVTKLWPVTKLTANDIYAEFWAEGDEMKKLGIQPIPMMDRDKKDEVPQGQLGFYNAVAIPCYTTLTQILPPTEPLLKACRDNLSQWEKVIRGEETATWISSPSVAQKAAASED

Structure (SMILES)	IC50 [nM]
Cn1nc(N2CCCC2)nc1CCc1nc2ccc(Cl)cn2n1 [Example 26, 6-Chloro-2-(2-(1-methyl-3-(pyrrolidin-1-yl)-1H-1,2,4-triazol-5-yl)ethyl)-[1,2,4]triazolo[1,5-a]pyridine]	62.7
Cn1nc(N2CCCC2)nc1CCc1nc2ccc3ccccc3n2n1 [Example 56, 2-(2-(1-Methyl-3-(pyrrolidin-1-yl)-1H-1,2,4-triazol-5-yl)ethyl)-[1,2,4]triazolo[1,5-a]quinoline]	29.2
Cc1ncc(C)n2nc(CCc3nc(N4CCC(O)C4)nn3C)nc12 (centres unmarked) [Example 104, 1-{5-[2-(5,8-Dimethyl-[1,2,4]triazolo[1,5-a]pyrazin-2-yl)-ethyl]-1-methyl-1H-[1,2,4]triazol-3-yl}-pyrrolidin-3-ol]	131
Cc1ncc(C)n2nc(CCc3nc(N4CC[C@H](C)C4)nn3C)nc12 [Example 115, 5,8-Dimethyl-2-{2-[2-methyl-5-((S)-3-methyl-pyrrolidin-1-yl)-2H-[1,2,4]triazol-3-yl]-ethyl}-[1,2,4]triazolo[1,5-a]pyrazine]	5.46
Cc1ncc(C)n2nc(CCc3nc(N4CC(F)(F)C4)nn3C)nc12 [Example 90, 2-{2-[5-(3,3-Difluoro-azetidin-1-yl)-2-methyl-2H-[1,2,4]triazol-3-yl]-ethyl}-5,8-dimethyl-[1,2,4]triazolo[1,5-a]pyrazine]	475
COc1ccc(Cn2nc(CCc3nc4c(Cl)cc(Cl)c(C)n4n3)nc2N2CCCC2)cc1 [Example 62, 6,8-Dichloro-2-(2-(1-(4-methoxybenzyl)-5-(pyrrolidin-1-yl)-1H-1,2,4-triazol-3-yl)ethyl)-5-methyl-[1,2,4]triazolo[1,5-a]pyridine]	3.23
Cc1c(Cl)cc(C(F)(F)F)c2nc(CCc3nc(N4CCCC4)n(C4CC4)n3)nn12 [Example 131, 6-Chloro-2-(2-(1-cyclopropyl-5-(pyrrolidin-1-yl)-1H-1,2,4-triazol-3-yl)ethyl)-5-methyl-8-(trifluoromethyl)-[1,2,4]triazolo[1,5-a]pyridine]	1.58
Cc1ncc(C)n2nc(CCc3nc(N4CCCC4C)nn3C)nc12 (centres unmarked) [Example 51, 5,8-Dimethyl-2-{2-[2-methyl-5-(2-methyl-pyrrolidin-1-yl)-2H-[1,2,4]triazol-3-yl]-ethyl}-[1,2,4]triazolo[1,5-a]pyrazine]	28.4
CCc1ncc(C)c2nc(CCc3nc(N4CCCC4)nn3C)nn12 [Example 50, 5-Ethyl-8-methyl-2-(2-(1-methyl-3-(pyrrolidin-1-yl)-1H-1,2,4-triazol-5-yl)ethyl)-[1,2,4]triazolo[1,5-c]pyrimidine]	4.9
Cc1ncc(C)n2nc(CCc3nc(N4CCC5(CC5)C4)nn3C)nc12 [Example 92, 2-{2-[5-(5-Aza-spiro[2.4]hept-5-yl)-2-methyl-2H-[1,2,4]triazol-3-yl]-ethyl}-5,8-dimethyl-[1,2,4]triazolo[1,5-a]pyrazine]	13.9
Cn1nc(N2CCCC2)nc1CCc1nc2cccc(C(F)(F)F)n2n1 [Example 64, 2-(2-(1-Methyl-3-(pyrrolidin-1-yl)-1H-1,2,4-triazol-5-yl)ethyl)-5-(trifluoromethyl)-[1,2,4]triazolo[1,5-a]pyridine]	56.6
Cc1c(Cl)cc(Cl)c2nc(CCc3nc(N4CCCC4)nn3C)nn12 [Example 52, 6,8-Dichloro-5-methyl-2-[2-(2-methyl-5-pyrrolidin-1-yl-2H-[1,2,4]triazol-3-yl)-ethyl]-[1,2,4]triazolo[1,5-a]pyridine]	0.63
Cc1nc2ccccc2nc1CCc1nc(N2CCCC2)nn1C [Example 16, 2-Methyl-3-[2-(2-methyl-5-pyrrolidin-1-yl-2H-[1,2,4]triazol-3-yl)-ethyl]-quinoxaline]	61.4
Cc1ncc(C)n2nc(CCc3nc(N4CCC4)nn3C)nc12 [Example 10, 2-[2-(5-Azetidin-1-yl-2-methyl-2H-[1,2,4]triazol-3-yl)-ethyl]-5,8-dimethyl-[1,2,4]triazolo[1,5-a]pyrazine]	1.4
Cc1ncc(C)n2nc(CCc3nc(N4CC(F)C4)nn3C)nc12 [Example 39, 2-{2-[5-(3-Fluoro-azetidin-1-yl)-2-methyl-2H-[1,2,4]triazol-3-yl]-ethyl}-5,8-dimethyl-[1,2,4]triazolo[1,5-a]pyrazine]	55.6
Cc1c(Cl)cc(C(F)(F)F)c2nc(C#Cc3nc(N4CCCC4)nn3C)nn12 [Example 91, 6-Chloro-5-methyl-2-(2-methyl-5-pyrrolidin-1-yl-2H-[1,2,4]triazol-3-ylethynyl)-8-trifluoromethyl-[1,2,4]triazolo[1,5-a]pyridine]	0.88
CCn1nc(CCc2nc3c(C)ncc(C)n3n2)nc1N1CCCC1 [Example 48, 2-(2-(1-Ethyl-5-(pyrrolidin-1-yl)-1H-1,2,4-triazol-3-yl)ethyl)-5,8-dimethyl-[1,2,4]triazolo[1,5-a]pyrazine]	28.5
Cc1c(Cl)cc(C(F)(F)F)c2nc(CCc3nc(N4CCCC4)n[nH]3)nn12 [Example 128, 6-Chloro-5-methyl-2-(2-(3-(pyrrolidin-1-yl)-1H-1,2,4-triazol-5-yl)ethyl)-8-(trifluoromethyl)-[1,2,4]triazolo[1,5-a]pyridine]	0.72
Cc1cc(C)n2nc(CCc3nc(N(C)C4CC4)nn3C)nc2n1 [Example 34, Cyclopropyl-{5-[2-(5,7-dimethyl-[1,2,4]triazolo[1,5-a]pyrimidin-2-yl)-ethyl]-1-methyl-1H-[1,2,4]triazol-3-yl}-methyl-amine]	128
Cc1ncc(C)n2nc(CCc3nc(N4CCCCC4)nn3C)nc12 [Example 49, 5,8-Dimethyl-2-[2-(2-methyl-5-piperidin-1-yl-2H-[1,2,4]triazol-3-yl)-ethyl]-[1,2,4]triazolo[1,5-a]pyrazine]	31.6
CCn1nc(C#Cc2nc3c(C)ncc(C)n3n2)nc1N1CCCC1 [Example 47, 2-((1-Ethyl-5-(pyrrolidin-1-yl)-1H-1,2,4-triazol-3-yl)ethynyl)-5,8-dimethyl-[1,2,4]triazolo[1,5-a]pyrazine]	4.48
Cc1c(C#N)cc(Cl)c2nc(CCc3nc(N4CCCC4)nn3C)nn12 [Example 74, 8-Chloro-5-methyl-2-[2-(2-methyl-5-pyrrolidin-1-yl-2H-[1,2,4]triazol-3-yl)-ethyl]-[1,2,4]triazolo[1,5-c]pyridine-6-carbonitrile]	2.16
COc1ccc(Cn2nc(C#Cc3cnc4ccc(Cl)cc4n3)nc2N2CCCC2)cc1 [Example 133, 7-chloro-2-((1-(4-methoxybenzyl)-5-(pyrrolidin-1-yl)-1H-1,2,4-triazol-3-yl)ethynyl)quinoxaline]	17.8
Cc1c(Cl)cc(OC(F)F)c2nc(CCc3nc(N4CCCC4)nn3C)nn12 [Example 95, 6-Chloro-8-difluoromethoxy-5-methyl-2-[2-(2-methyl-5-pyrrolidin-1-yl-2H-[1,2,4]triazol-3-yl)-ethyl]-[1,2,4]triazolo[1,5-c]pyridine]	0.23
Cc1ncc(C)n2nc(CCc3nc(N4CCC(F)(F)C4)nn3C)nc12 [Example 93, 2-{2-[5-(3,3-Difluoro-pyrrolidin-1-yl)-2-methyl-2H-[1,2,4]triazol-3-yl]-ethyl}-5,8-dimethyl-[1,2,4]triazolo[1,5-a]pyrazine]	166
Cc1c(Cl)cc(O)c2nc(CCc3nc(N4CCCC4)nn3C)nn12 [Example 85, 6-Chloro-5-methyl-2-(2-(1-methyl-3-(pyrrolidin-1-yl)-1H-1,2,4-triazol-5-yl)ethyl)-[1,2,4]triazolo[1,5-a]pyridin-8-ol]	4.22
